Assay results from ChEMBL document CHEMBL1201862, “PubChem BioAssay data set” (2004).
The source made the active and inactive calls.

How the values were obtained:
[1] = general mammalian cell viability loss – activator set, cherry-pick, cytotoxicity control for miR-122 modulator project, dose response (AID 720690); assay type: functional, cell-based;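 note: HEK293T human cells scored for general mammalian cytotoxicity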
[2] = activation of miR-122 Renilla sensor silencing – cell-based, Huh7 psiCHECK-miR122, Renilla luciferase, cherry-picked, dose response (AID 651956); assay type: functional;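 note: huh7 hepatoma cells stably carrying a psiCHECK-2 miR-122 sensor plasmid; renilla luciferase signal reporting endogenous miR-122 activity after 48 h compound exposure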
[3] = HGIII-sPLA2 enzyme inhibition potency – biochemical, QFRET, IC50, dose response (AID 743457);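 note: green fluorescence rise as the enzyme cleaves BODIPY PC-A2 in liposomes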
BHK-21 = test: viability loss in BHK-21 cells – cell-based, plate reader, cherry-pick samples, cytotoxicity control, dose response (AID 687030); assay type: functional; settings: Mesocricetus auratus
[4] = TNFa-induced NF-kB reporter signal decrease – HEK293 LMP1 reporter cells, dry powder, set 2, selectivity assay for EBV LMP1 NF-kB inhibitor project, dose response (AID 624369); assay type: functional
[5] = inhibitors of EBV LMP1 NF-kappaB signaling – cell-based, luciferase reporter, luminescence, dry powder, set 2, dose response (AID 624376); assay type: functional
[6] = mouse fibroblast viability loss – cell-based, cherry-pick samples, set 2, cytotoxicity control for T. cruzi growth inhibitor project, dose response (AID 651817); assay type: functional; settings: NIH3T3
Beta-lactamase [7] = molecular target: T1, Beta-lactamase (Pseudomonas aeruginosa, UniProt Q79MP6); test: inhibition of IMP-1 beta-lactamase activity – biochemical, epi-absorbance, selectivity assay for VIM-2 inhibitor project, dose response (AID 1920)
Beta-lactamase [8] = molecular target: Beta-lactamase (Salmonella choleraesuis (strain SC-B67), UniProt Q5J463); test: Epi-absorbance-based counterscreen for selective VIM-2 inhibitors: dose response biochemical high throughput screening assay to identify inhibitors of TEM-1 serine-beta-lactamase.
Beta-lactamase [9] = molecular target: T1, Beta-lactamase; test: […] counterscreen for selective VIM-2 inhibitors: dose response biochemical high throughput screening assay to identify inhibitors of IMP-1 metallo-beta-lactamase.
Albumin = Albumin (Bos taurus, UniProt P02769); test: Counterscreen for inhibitors of T-cell receptor (TCR)-CD3 interaction: Fluorescence-based biochemical high throughput dose response assay to identify inhibitors of T-cell receptor (TCR)-CD3 interaction using a TAMRA-labeled BSA probe.; assay type: functional
Sequence of Albumin (P02769 whole entry): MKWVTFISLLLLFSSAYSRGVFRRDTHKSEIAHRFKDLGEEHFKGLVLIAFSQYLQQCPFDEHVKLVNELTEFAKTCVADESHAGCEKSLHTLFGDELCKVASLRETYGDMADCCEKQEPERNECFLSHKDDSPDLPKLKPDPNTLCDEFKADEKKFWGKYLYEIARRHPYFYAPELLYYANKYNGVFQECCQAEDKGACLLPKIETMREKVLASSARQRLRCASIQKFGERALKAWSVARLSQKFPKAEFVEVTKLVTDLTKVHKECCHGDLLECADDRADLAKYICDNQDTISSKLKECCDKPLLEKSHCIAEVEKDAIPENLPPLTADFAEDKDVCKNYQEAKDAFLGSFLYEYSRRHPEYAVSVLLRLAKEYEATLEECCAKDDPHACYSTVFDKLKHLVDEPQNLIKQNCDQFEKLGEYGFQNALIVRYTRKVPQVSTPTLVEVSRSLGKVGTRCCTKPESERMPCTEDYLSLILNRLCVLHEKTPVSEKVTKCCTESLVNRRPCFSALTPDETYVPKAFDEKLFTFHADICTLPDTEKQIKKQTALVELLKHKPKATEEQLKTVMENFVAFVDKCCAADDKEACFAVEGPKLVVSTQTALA

T1 sequence (Q79MP6 whole entry): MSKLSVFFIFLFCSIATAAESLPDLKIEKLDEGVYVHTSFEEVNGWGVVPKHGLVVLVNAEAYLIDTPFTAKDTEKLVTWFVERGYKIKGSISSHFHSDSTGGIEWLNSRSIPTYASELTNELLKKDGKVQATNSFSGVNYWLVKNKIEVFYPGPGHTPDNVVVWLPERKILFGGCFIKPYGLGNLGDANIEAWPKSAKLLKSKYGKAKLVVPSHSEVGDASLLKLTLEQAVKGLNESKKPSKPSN
Sequence of Beta-lactamase (Salmonella choleraesuis (strain SC-B67), UniProt Q5J463) (Q5J463 whole entry): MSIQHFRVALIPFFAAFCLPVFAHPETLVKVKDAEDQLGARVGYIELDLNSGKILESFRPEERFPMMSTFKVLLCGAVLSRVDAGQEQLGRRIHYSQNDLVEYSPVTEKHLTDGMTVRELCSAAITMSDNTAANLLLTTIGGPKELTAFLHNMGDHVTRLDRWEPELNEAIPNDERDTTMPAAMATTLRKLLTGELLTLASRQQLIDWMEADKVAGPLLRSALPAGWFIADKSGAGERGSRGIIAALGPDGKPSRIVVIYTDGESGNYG

**Q.** Which results are given for `C[C@H]1CCCCO[C@H](CN(C)Cc2ccc3c(c2)OCO3)[C@@H](C)CN([C@@H](C)CO)C(=O)c2cc(NC(=O)Nc3cccc4ccccc34)ccc2O1`?
**A.** AC50 [1]: 10 µM (active); AC50 [2]: 10 µM (active)

**Q.** With `Sc1nnc(COc2ccccc2)n1-c1ccc(Cl)cc1` as the molecule, how does the IC50 [3] read?
**A.** > 122 µM (inactive)

**Q.** For `CCN(CC)CC(=O)N1CCCC(N2CCN(c3cccc(C(F)(F)F)c3)CC2)C1` (stereo unspecified), which AC50 (BHK-21) is on record?
**A.** 33.4 µM (active)

**Q.** Which results are given for `COc1ccc(S(=O)(=O)N(C)C[C@@H]2Oc3ncc(/C=C/c4ccccc4)cc3C(=O)N([C@@H](C)CO)C[C@H]2C)cc1`?
**A.** AbsAC35 [4]: 77.19 µM; AbsAC35 [5]: 47.67 µM

**Q.** For `C[C@H]1CN([C@@H](C)CO)C(=O)c2cccc(NC(=O)Nc3ccc(C(F)(F)F)cc3)c2O[C@H]1CN(C)Cc1ccc(Cl)c(Cl)c1`, which AC50 [6] is on record?
**A.** 13.6 µM (active)

**Q.** Which results are given for `COc1ccc(-c2n[nH]c(=S)n2-c2ccc3c(c2)OCCO3)cc1OC`?
**A.** IC50 (Beta-lactamase [7]): > 59.6 µM (inactive); IC50 (Beta-lactamase [8]): > 59.6 µM (inactive); IC50 (Beta-lactamase [9]): > 59.6 µM (inactive)

**Q.** With `CC(C)C(=O)Nc1ccc(C(=O)NNC(=S)NC(=O)c2ccccc2[N+](=O)[O-])cc1` as the molecule, how does the IC50 (Albumin) read?
**A.** > 94.1 µM (inactive)
